Literature values, collected in patent publication US20220125792A1, “USE OF COMPOSITION CONTAINING CDK4/6 INHIBITOR IN COMBINATION WITH ANASTROZOLE IN PREPARATION OF MEDICAMENT FOR TREATING TUMOR DISEASES” (Jiangsu Hengrui Medicine Co., Ltd., priority 2019, published 2022).

Assays:
[1] = tested on: systemic aromatization and plasma estrogen level; settings: letrozole 2.5 mg once a day, postmenopausal women with metastatic breast cancer

SMILES: N#Cc1ccc(C(c2ccc(C#N)cc2)n2cncn2)cc1 [letrozole]
- inhibition of systemic aromatization and plasma estrogen level, compared with anastrozole (1 mg daily) [1]: more effective systemic aromatization and plasma estrogen level inhibitor than anastrozole
- total remission rate (ORR), letrozole versus anastrozole (advanced breast cancer; European Journal of Cancer 39 (2003) 2318-2327): significantly superior to anastrozole
- response of advanced breast cancer, second-line hormonal therapy, letrozole versus anastrozole (advanced breast cancer; open randomized trial): responded more strongly to letrozole than to anastrozole
